IC50 and melting point data for 2 molecules are collected here from PMC8401699, “Synthesis, DFT Calculations, Antiproliferative, Bactericidal Activity and Molecular Docking of Novel Mixed-Ligand Salen/8-Hydroxyquinoline Metal Complexes” (Molecules, 2021).

One data set concerns MDA-MB231 cells. Description: MTT cytotoxicity assay, MDA-MB231. It counts as cell-based, human. The note with it: read-out: IC50 Values, MDA-MB231 Cell Line. As to the method:
(§1) The cytotoxic activities of the synthesized ligands and metal complexes against the breast cancer cell line MDA-MB231, the hepatic cellular (Hep-G2), and normal cell line (HEK-293) were assessed by MTT assay. A cell suspension was diluted by complete medium to a concentration of 5 × 10^4 cell/mL. Using a micropipette, we pipetted 100 μL aliquots of the cell suspension into each well of 96-well plate (≈5000 cells/well). The 96-well plate was incubated at 37 °C for 24 h to allow cell attachment. After 24 h, cells were treated with 100 µL of growth medium containing […] of the newly synthesized compounds in triplicate. Cells were washed with phosphate-buffered saline (PBS), and fresh relevant medium containing 20 μL MTT in PBS (0.5 mg/mL) was added to the test wells. […] The MTT assay technique is based on the reduction of the tetrazolium salt MTT to insoluble purple formazan by metabolically active cells, making their activities quantifiable by spectrophotometry. […] Cell viability was determined by measuring the absorbance of each well at 570 nm (and at a reference wavelength of 630 nm) using an ELISA plate reader. […] IC50 values were calculated using Graph Pad Prism version 6.01, 2012 (GraphPad software, San Diego, CA, USA), by plotting the log concentration versus corresponding viability (%) to generate dose–response curves. […]
(Tetrazolium dyes change colour on reduction, which living cells bring about.)

Another data set deals with HEK-293 cells. Put plainly: MTT cytotoxicity assay, normal cell line HEK-293. It counts as cell-based. The procedure: A cell suspension was diluted by complete medium to a concentration of 5 × 10^4 cell/mL. Using a micropipette, we pipetted 100 μL aliquots of the cell suspension into each well of 96-well plate (≈5000 cells/well). The 96-well plate was incubated at 37 °C for 24 h to allow cell attachment. After 24 h, cells were treated with 100 µL of growth medium containing […] of the newly synthesized compounds in triplicate. Cells were washed with phosphate-buffered saline (PBS), and fresh relevant medium containing 20 μL MTT in PBS (0.5 mg/mL) was added to the test wells. The plate was further incubated in a CO2 incubator at 37 °C for 4 h, and then MTT assay analysis was performed. The MTT assay technique is based on the reduction of the tetrazolium salt MTT to insoluble purple formazan by metabolically active cells, making their activities quantifiable by spectrophotometry. Accordingly, the formed formazan crystals were dissolved in 120 μL DMSO for each well. Cell viability was determined by measuring the absorbance of each well at 570 nm (and at a reference wavelength of 630 nm) using an ELISA plate reader.

The next data set deals with Hep-G2 cells. Description: MTT cytotoxicity assay, Hep-G2. The note with it: read-out: IC50 Values, Hep-G2 Cell Line. It counts as cell-based, human. As to the method: as §1

Like-named read-outs stand apart in the source and are kept apart here.

Turning to `N.N.[Cl][Pt][Cl]` [Cisplatin, reference compound], the IC50 – broadly, the concentration that gives 50% inhibition – turned out to be 1.87 ± 0.09 µM in the data set on MDA-MB231 cells (MDA-MB231 breast carcinoma cells); 94.1 ± 0.05 µM with HEK-293 cells (read-out: IC50 Values, HEK-293 Cell Lines); 1.55 ± 0.06 µM in the data set on Hep-G2 cells (Hep-G2 liver carcinoma cells).

As to `Oc1ccccc1C=NCCN=Cc1ccccc1O` [S, 2,2′-{1,2-ethanediylbis[nitrilo(E)methylylidene]}diphenol], the melting point (as a rule, the temperature of the solid-liquid transition) was found to be 127 °C. Moreover, the IC50 with MDA-MB231 cells (Homo sapiens, MDA-MB-231, MDA-MB231 breast carcinoma cells) amounted to 27.54 ± 0.08 µM. For the same molecule, the IC50 in the data set with HEK-293 cells (Homo sapiens, HEK293, read-out: IC50 Values, HEK-293 Cell Lines) is 93.06 ± 0.04 µM. The IC50 in the data set on Hep-G2 cells (Homo sapiens, HepG2, Hep-G2 liver carcinoma cells) came to 1.1 ± 0.1 µM.
